12 compounds from ChEMBL document CHEMBL1201862, “PubChem BioAssay data set” (2004) can be followed below.

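A five-concentration, 48-hour dose response in 96-well plates underlies each endpoint, interpolated linearly between surrounding concentrations. At the GI50, growth is halved.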 Calls of active or inactive are those of the source. Cut-off read from the data, not from the text of the source: active = GI50 up to about 1.1 µM and inactive = higher. Where a SMILES comes first, the peptide text is derived from it. Bridges are numbered along the chain shown (N, C = ends). The star is where a group is joined. Cbz = O=C(OCc1ccccc1)* Where only a bound is given, the exact number is not on record here.

Common to all, as to assay: NCI anticancer screen, dose series, 48 h
The test system of assay [1] is NCI/ADR-RES.
In assay [2] the test system is UACC-62.
The test system of assay [3] is SF-539.
In assay [4] the test system is SR.
Assay [5] relates to RXF 393.
The subject of assay [6] is K562.
For assay [7], the system named is Malme-3M.
The subject of assay [8] is CCRF-CEM.
Assay [9] has as its system COLO 205.
Assay [10] has as its system NCI-H460.
The subject of assay [11] is EKVX.
Assay [12] concerns MOLT-4.
The test system of assay [13] is DU-145.
Assay [14] deals with 786-0.
In assay [15] the test system is MDA-N.
Assay [16] deals with CAKI-1.
Assay [17] has as its system A498.
The test system of assay [18] is DLD-1.

Take `N#Cc1c2c(c(Nc3ccc(F)cc3)n3c1nc1ccccc13)CCC2`: the GI50 in assay [1] was 5.27 µM (inactive); in [2] it was 10.9 µM (inactive); in [3], 3.46 µM (inactive); in assay [4] it was 10.2 µM (inactive); in assay [5] it was 2.14 µM (inactive); in assay [6] it was 9.44 µM (inactive). In addition, the GI50 was 7.41 µM (inactive) in assay [7]; 0.791 µM (active) in assay [8]; 6.31 µM (inactive) in [9]; 7.21 µM (inactive) in assay [10]; 11.3 µM (inactive) in assay [11]; 7.73 µM (inactive) in assay [12]. The GI50 in assay [13] is 3.61 µM (inactive); in [14] it was 1.78 µM (inactive); in assay [15], 3.47 µM (inactive); in [16] it was 1.68 µM (inactive); in [17], 12.9 µM (inactive).

Regarding `N#Cc1c(=O)c2cc([N+](=O)[O-])ccc2n2c1[nH]c1ccccc12`, the GI50 was 3.54 µM (inactive) in [1]; 4.59 µM (inactive) in assay [2]; 17.3 µM (inactive) in [3]; 10.7 µM (inactive) in assay [4]; 3.55 µM (inactive) in assay [5]; 3.78 µM (inactive) in assay [6]. For the same compound, the GI50 was 8.89 µM (inactive) in [7]; 5.37 µM (inactive) in assay [8]; 4.99 µM (inactive) in assay [9]; 4.99 µM (inactive) in assay [10]; 23.1 µM (inactive) in assay [11]; 4.83 µM (inactive) in assay [12]. Moreover, the GI50 in assay [13] was 8.05 µM (inactive); in assay [14], 6.75 µM (inactive); in assay [15], 15 µM (inactive); in assay [16], 6.84 µM (inactive); in assay [17] it was 1.71 µM (inactive).

Take `Cc1ccccc1N(CC(=O)O)S(=O)(=O)c1ccccc1`: the GI50 in assay [2], in [3], in assay [5], in assay [6], in [18] and in assay [7] was > 100 µM (inactive) in each case. Further, the GI50 in assay [8], in [9], in assay [10], in [11], in assay [12] and in assay [14] was > 100 µM (inactive) in each case. Also, the GI50 in assay [16] and in assay [17] was > 100 µM (inactive) throughout.

Turning to `O=C1/C(=C/c2ccc(O)c(O)c2)CC/C1=C\c1ccc(O)c(O)c1`, the GI50 was 8.24 µM (inactive) in [1]; 3.79 µM (inactive) in [2]; 2.49 µM (inactive) in assay [3]; 2.3 µM (inactive) in [4]; 3.25 µM (inactive) in assay [5]; 3.24 µM (inactive) in [6]. The GI50 was > 29.8 µM (inactive) in assay [7]; 1.65 µM (inactive) in [8]; 16.2 µM (inactive) in assay [9]; 9.66 µM (inactive) in assay [10]; 10.7 µM (inactive) in [11]; 3.23 µM (inactive) in assay [12]. Besides, the GI50 in assay [13] is 9.46 µM (inactive); in [14] it was 3.83 µM (inactive); in [15], 4.61 µM (inactive); in [16] it was 8.17 µM (inactive); in assay [17] it was 17 µM (inactive).

Consider `CC12CC(=O)C3C(CCC4=CC(=O)CCC43C)C1CC=C2CC(=O)O` (stereo not drawn), for which the GI50 in assay [1], in [2], in assay [3], in [4], in [5] and in assay [6] was > 100 µM (inactive) throughout. Further, the GI50 in [7], in [8], in assay [9], in assay [10], in assay [11] and in [12] was > 100 µM (inactive) each time. Also, the GI50 in assay [13], in assay [14], in [15], in assay [16] and in assay [17] was > 100 µM (inactive) throughout.

In the case of `c1ccc(-c2nc3ccccc3n3c(CN4CCCCC4)nnc23)cc1`, the GI50 in assay [1] is > 100 µM (inactive); in assay [2] it was > 100 µM (inactive); in assay [3], 51.3 µM (inactive); in assay [4], > 100 µM (inactive); in assay [5], 35.7 µM (inactive); in [6], > 100 µM (inactive). Moreover, the GI50 in assay [7] is > 100 µM (inactive); in [8], > 100 µM (inactive); in [9] it was > 100 µM (inactive); in [10] it was > 100 µM (inactive); in assay [11] it was 93.5 µM (inactive); in assay [12] it was > 100 µM (inactive). The GI50 in [13] is > 100 µM (inactive); in assay [14] it was 37.3 µM (inactive); in assay [15], > 100 µM (inactive); in assay [16] it was > 100 µM (inactive); in assay [17] it was 60 µM (inactive).

As for `COC(=O)C1CCCCNC(=O)CCC(NC(=O)OCc2ccccc2)C(=O)N1` (stereo not drawn) (Cbz-Glu-Lys-OMe; lactam 1-2; configuration not given here), the GI50 is > 100 µM (inactive) in assay [1]; > 100 µM (inactive) in assay [2]; > 100 µM (inactive) in assay [3]; > 100 µM (inactive) in [4]; 25.5 µM (inactive) in assay [5]; > 100 µM (inactive) in assay [6]. Moreover, the GI50 in assay [7], in assay [8], in [9], in [10], in [11] and in [12] was > 100 µM (inactive) in each case. Moreover, the GI50 is > 100 µM (inactive) in [13]; 43.6 µM (inactive) in assay [14]; > 100 µM (inactive) in [15]; > 100 µM (inactive) in [16]; > 100 µM (inactive) in [17].

Turning to `COC(=O)Cc1nn2c(nc1=O)sc1ccc3ccccc3c12`, the GI50 in [3] is > 100 µM (inactive); in assay [4], > 100 µM (inactive); in [5] it was 50.7 µM (inactive); in [6], > 100 µM (inactive); in assay [18], > 100 µM (inactive); in [7] it was > 100 µM (inactive). Further, the GI50 in assay [8] is > 100 µM (inactive); in assay [9], > 100 µM (inactive); in assay [10], 62.7 µM (inactive); in [11], > 100 µM (inactive); in [12], > 100 µM (inactive); in [14], 44.3 µM (inactive). Moreover, the GI50 in assay [16] was 50.2 µM (inactive); in assay [17], > 100 µM (inactive).

`CC1(C)[C@@H]2CC[C@@]1(C)CN(CCC[N+](C)(C)C)C2`: the GI50 in assay [1], in [2], in [3], in assay [4], in assay [5] and in [6] was > 100 µM (inactive) each time. For the same compound, the GI50 in [7], in [8], in assay [9], in assay [10], in [11] and in assay [12] was > 100 µM (inactive) throughout. Besides, the GI50 in assay [13], in assay [14], in [15], in assay [16] and in [17] was > 100 µM (inactive) each time.

Turning to `Cc1ccc2c(c1)C=CC(C#N)N2C(=O)Oc1ccccc1` (stereo not drawn), the GI50 was 20.2 µM (inactive) in [1]; 31.4 µM (inactive) in assay [2]; 60.7 µM (inactive) in assay [3]; 19.4 µM (inactive) in assay [4]; 37.7 µM (inactive) in [5]; 23.7 µM (inactive) in assay [6]. The GI50 in assay [7] is 33 µM (inactive); in [8], 17.2 µM (inactive); in assay [9], 25.9 µM (inactive); in [10], 29.6 µM (inactive); in assay [11], 18.1 µM (inactive); in assay [12], 19.6 µM (inactive). The GI50 in assay [13] is 17.9 µM (inactive); in assay [14] it was 43.7 µM (inactive); in assay [15], 29 µM (inactive); in assay [16] it was 57.4 µM (inactive); in assay [17] it was 20.6 µM (inactive).

With `COc1ccc(-c2csc3c2-n2cccc2C3=O)cc1`, the GI50 is < 0.0204 µM (active) in assay [1]; 0.0269 µM (active) in assay [2]; 0.0304 µM (active) in [3]; 0.0206 µM (active) in [4]; 0.07 µM (active) in assay [5]; < 0.0285 µM (active) in [6]. For the same compound, the GI50 in [7] is 28.8 µM (inactive); in [8], 0.0242 µM (active); in assay [9], 0.215 µM (active); in [10], 0.11 µM (active); in assay [11], 0.767 µM (active); in assay [12], 0.0444 µM (active). Further, the GI50 is 0.175 µM (active) in [13]; 0.303 µM (active) in assay [14]; 0.0135 µM (active) in assay [15]; 0.268 µM (active) in assay [16]; 0.698 µM (active) in [17].

Take `Cc1cn2c(C)csc2c1P(=O)(OC(C)C)OC(C)C`: the GI50 in assay [1], in assay [2], in assay [3], in assay [4], in assay [5] and in [6] was > 100 µM (inactive) each time. For the same compound, the GI50 in assay [7], in [8], in assay [9], in assay [10], in assay [11] and in [12] was > 100 µM (inactive) throughout. Further, the GI50 in assay [13], in assay [14], in assay [15], in assay [16] and in assay [17] was > 100 µM (inactive) throughout.
